Measurements from ChEMBL document CHEMBL5131467, “Multivalent peptide dendrimers inhibit the fusion of viral-cellular membranes and the cellular NF-κB signaling pathway” (Eur J Med Chem, 2022).
Where a SMILES comes first, the peptide text is derived from it. Bridges are numbered along the chain shown (N, C = ends). Roman numbers before positions name the chains, in order. Side-chain parts run from the residue outwards. The star is where a group is joined. Acetyl(2-naphthyl) = O=C(Cc1ccc2ccccc2c1)*; Fmoc = O=C(OCC1c2ccccc2-c2ccccc21)*

Test system: Influenza A virus
Assay: Antiviral activity against Influenza A virus (A/Puerto Rico/8/1934(H1N1)) NA-H374Y mutant infected in MDCK cells incubated for 1 hr by MTT assay
Assay type: functional, organism-based

NCCCC[C@H](NC(=O)OCC1c2ccccc2-c2ccccc21)C(=O)N[C@@H](CCCCN)C(=O)N[C@@H](Cc1c[nH]c2ccccc12)C(=O)N[C@@H](CCCCN)C(=O)NCCCC[C@H](NC(=O)[C@H](CCCCN)NC(=O)[C@H](Cc1c[nH]c2ccccc12)NC(=O)[C@H](CCCCN)NC(=O)[C@H](CCCCN)NC(=O)OCC1c2ccccc2-c2ccccc21)C(=O)NCCCC[C@H](NC(=O)[C@H](CCCCNC(=O)[C@H](CCCCN)NC(=O)[C@H](Cc1c[nH]c2ccccc12)NC(=O)[C@H](CCCCN)NC(=O)[C@H](CCCCN)NC(=O)OCC1c2ccccc2-c2ccccc21)NC(=O)[C@H](CCCCN)NC(=O)[C@H](Cc1c[nH]c2ccccc12)NC(=O)[C@H](CCCCN)NC(=O)[C@H](CCCCN)NC(=O)OCC1c2ccccc2-c2ccccc21)C(=O)NCC(=O)O (I: Fmoc-KKWKK([Lys-Trp-Lys-Lys-Fmoc])KG-OH / II: Fmoc-KKWKK([Lys-Trp-Lys-Lys-Fmoc]); amide I:6-II:C) showed an IC50 of 540 nM.

For NCCCC[C@H](NC(=O)Cc1ccc2ccccc2c1)C(=O)N[C@@H](CCCCN)C(=O)N[C@@H](Cc1c[nH]c2ccccc12)C(=O)N[C@@H](CCCCN)C(=O)NCCCC[C@H](NC(=O)[C@H](CCCCN)NC(=O)[C@H](Cc1c[nH]c2ccccc12)NC(=O)[C@H](CCCCN)NC(=O)[C@H](CCCCN)NC(=O)Cc1ccc2ccccc2c1)C(=O)NCCCC[C@H](NC(=O)[C@H](CCCCNC(=O)[C@H](CCCCN)NC(=O)[C@H](Cc1c[nH]c2ccccc12)NC(=O)[C@H](CCCCN)NC(=O)[C@H](CCCCN)NC(=O)Cc1ccc2ccccc2c1)NC(=O)[C@H](CCCCN)NC(=O)[C@H](Cc1c[nH]c2ccccc12)NC(=O)[C@H](CCCCN)NC(=O)[C@H](CCCCN)NC(=O)Cc1ccc2ccccc2c1)C(=O)NCC(=O)O (I: {Acetyl(2-naphthyl)}-KKWKK([Lys-Trp-Lys-Lys-Acetyl(2-naphthyl)])KG-OH / II: {Acetyl(2-naphthyl)}-KKWKK([Lys-Trp-Lys-Lys-Acetyl(2-naphthyl)]); amide I:6-II:C), the IC50 was 160 nM.

Compound CCOC(=O)c1c(CSc2ccccc2)n(C)c2cc(Br)c(O)c(CN(C)C)c12.Cl has an IC50 of 600 nM.
